From the supplement of paper PMC10307832

Legend:
Assay in all cases: relative viability (nuclei count vs DMSO), 5 days (fraction); higher = more cells survive
BAY61-3606 + Tozasertib = compound: COC1=C(C=C(C=C1)C2=CC3=NC=CN3C(=N2)NC4=C(C=CC=N4)C(=O)N)OC [BAY61-3606] + Cc1cc(Nc2cc(N3CCN(C)CC3)nc(Sc3ccc(NC(=O)C4CC4)cc3)n2)n[nH]1 [Tozasertib] (partner 0.1 µM)
Summary of the method: (§1)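 Lung cancer cell lines were seeded in 1536-well plates and dosed by pin tool the next day, with either a single drug or a fixed anchor-drug dose combined with five library-drug doses (not always all listed) spaced in √10 steps. Five days later, one step fixed the cells and stained their nuclei (final 0.05% Triton X-100, 1% formaldehyde, 1 ug/ml Hoechst), and nuclei were counted on 4× images. Relative viability is the nuclei count in treated wells divided by the count in vehicle wells, and each value is the median of duplicate plates.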

Doxorubicin + Navitoclax = compound: COc1cccc2c1C(=O)c1c(O)c3c(c(O)c1C2=O)C[C@@](O)(C(=O)CO)C[C@@H]3O[C@H]1C[C@H](N)[C@H](O)[C@H](C)O1 [Doxorubicin] + CC1(C)CCC(c2ccc(Cl)cc2)=C(CN2CCN(c3ccc(C(=O)NS(=O)(=O)c4ccc(N[C@H](CCN5CCOCC5)CSc5ccccc5)c(S(=O)(=O)C(F)(F)F)c4)cc3)CC2)C1 [Navitoclax] (partner 0.5 µM)
Summary of the method: as §1

Doxorubicin + Linsitinib = compound: COc1cccc2c1C(=O)c1c(O)c3c(c(O)c1C2=O)C[C@@](O)(C(=O)CO)C[C@@H]3O[C@H]1C[C@H](N)[C@H](O)[C@H](C)O1 [Doxorubicin] + C[C@]1(O)C[C@@H](c2nc(-c3ccc4ccc(-c5ccccc5)nc4c3)c3c(N)nccn32)C1 [Linsitinib] (partner 1 µM)
Summary of the method: as §1

[1] = compound: COc1cccc2c1C(=O)c1c(O)c3c(c(O)c1C2=O)C[C@@](O)(C(=O)CO)C[C@@H]3O[C@H]1C[C@H](N)[C@H](O)[C@H](C)O1 [Doxorubicin] + CC(=O)c1c(C)c2cnc(Nc3ccc(N4CCNCC4)cn3)nc2n(C2CCCC2)c1=O [Palbociclib] (partner 0.5 µM)
Summary of the method: as §1

Cell Line: HCC-44
- relative viability (BAY61-3606 + Tozasertib; first compound 0.02 µM): 0.91
- relative viability (BAY61-3606 + Tozasertib; first compound 0.2 µM): 0.832
- relative viability (BAY61-3606 + Tozasertib; first compound 0.6325 µM): 0.533
- relative viability (BAY61-3606 + Tozasertib; first compound 2 µM): 0.327
- relative viability (Doxorubicin + Navitoclax; first compound 0.001 µM): 1.01
- relative viability (Doxorubicin + Navitoclax; first compound 0.003162 µM): 1.15
- relative viability (Doxorubicin + Navitoclax; first compound 0.01 µM): 0.969
- relative viability (Doxorubicin + Navitoclax; first compound 0.03162 µM): 1.01
- relative viability (Doxorubicin + Navitoclax; first compound 0.1 µM): 1.03
- relative viability (Doxorubicin + Linsitinib; first compound 0.001 µM): 0.686
- relative viability (Doxorubicin + Linsitinib; first compound 0.003162 µM): 0.667
- relative viability (Doxorubicin + Linsitinib; first compound 0.01 µM): 0.621
- relative viability (Doxorubicin + Linsitinib; first compound 0.03162 µM): 0.69
- relative viability (Doxorubicin + Linsitinib; first compound 0.1 µM): 0.753
- relative viability ([1]; first compound 0.001 µM): 0.99
- relative viability ([1]; first compound 0.003162 µM): 0.981
- relative viability ([1]; first compound 0.01 µM): 1
- relative viability ([1]; first compound 0.03162 µM): 1.03
- relative viability ([1]; first compound 0.1 µM): 0.933

Cell Line: BEN
- relative viability (BAY61-3606 + Tozasertib; first compound 0.02 µM): 0.489
- relative viability (BAY61-3606 + Tozasertib; first compound 0.06325 µM): 0.494
- relative viability (BAY61-3606 + Tozasertib; first compound 0.2 µM): 0.648
- relative viability (BAY61-3606 + Tozasertib; first compound 0.6325 µM): 0.673
- relative viability (BAY61-3606 + Tozasertib; first compound 2 µM): 0.465
- relative viability (Doxorubicin + Navitoclax; first compound 0.001 µM): 0.0762
- relative viability (Doxorubicin + Navitoclax; first compound 0.003162 µM): 0.071
- relative viability (Doxorubicin + Navitoclax; first compound 0.01 µM): 0.0683
- relative viability (Doxorubicin + Navitoclax; first compound 0.03162 µM): 0.0474
- relative viability (Doxorubicin + Navitoclax; first compound 0.1 µM): 0.0661
- relative viability (Doxorubicin + Linsitinib; first compound 0.001 µM): 0.984
- relative viability (Doxorubicin + Linsitinib; first compound 0.003162 µM): 0.863
- relative viability (Doxorubicin + Linsitinib; first compound 0.01 µM): 0.983
- relative viability (Doxorubicin + Linsitinib; first compound 0.03162 µM): 0.621
- relative viability (Doxorubicin + Linsitinib; first compound 0.1 µM): 0.79
- relative viability ([1]; first compound 0.001 µM): 0.454
- relative viability ([1]; first compound 0.003162 µM): 0.458
- relative viability ([1]; first compound 0.01 µM): 0.46
- relative viability ([1]; first compound 0.03162 µM): 0.441
- relative viability ([1]; first compound 0.1 µM): 0.465

Cell Line: NCI-H2405
- relative viability (BAY61-3606 + Tozasertib; first compound 0.02 µM): 0.698
- relative viability (BAY61-3606 + Tozasertib; first compound 0.06325 µM): 0.426
- relative viability (BAY61-3606 + Tozasertib; first compound 0.2 µM): 0.479
- relative viability (BAY61-3606 + Tozasertib; first compound 0.6325 µM): 0.491
- relative viability (BAY61-3606 + Tozasertib; first compound 2 µM): 0.287
- relative viability (Doxorubicin + Navitoclax; first compound 0.003162 µM): 0.779
- relative viability (Doxorubicin + Navitoclax; first compound 0.01 µM): 0.851
- relative viability (Doxorubicin + Navitoclax; first compound 0.03162 µM): 0.639
- relative viability (Doxorubicin + Navitoclax; first compound 0.1 µM): 0.493
- relative viability (Doxorubicin + Linsitinib; first compound 0.003162 µM): 0.938
- relative viability (Doxorubicin + Linsitinib; first compound 0.01 µM): 0.887
- relative viability (Doxorubicin + Linsitinib; first compound 0.03162 µM): 0.707
- relative viability (Doxorubicin + Linsitinib; first compound 0.1 µM): 0.519
- relative viability ([1]; first compound 0.001 µM): 0.537
- relative viability ([1]; first compound 0.003162 µM): 0.534
- relative viability ([1]; first compound 0.01 µM): 0.51
- relative viability ([1]; first compound 0.03162 µM): 0.463
- relative viability ([1]; first compound 0.1 µM): 0.447

Cell Line: NCI-H1395
- relative viability (BAY61-3606 + Tozasertib; first compound 0.02 µM): 0.722
- relative viability (BAY61-3606 + Tozasertib; first compound 0.06325 µM): 0.679
- relative viability (BAY61-3606 + Tozasertib; first compound 0.2 µM): 0.682
- relative viability (BAY61-3606 + Tozasertib; first compound 0.6325 µM): 0.781
- relative viability (BAY61-3606 + Tozasertib; first compound 2 µM): 0.411
- relative viability (Doxorubicin + Navitoclax; first compound 0.001 µM): 0.992
- relative viability (Doxorubicin + Navitoclax; first compound 0.003162 µM): 1
- relative viability (Doxorubicin + Navitoclax; first compound 0.01 µM): 1.07
- relative viability (Doxorubicin + Navitoclax; first compound 0.03162 µM): 0.861
- relative viability (Doxorubicin + Navitoclax; first compound 0.1 µM): 0.898
- relative viability (Doxorubicin + Linsitinib; first compound 0.001 µM): 1.03
- relative viability (Doxorubicin + Linsitinib; first compound 0.003162 µM): 1.09
- relative viability (Doxorubicin + Linsitinib; first compound 0.01 µM): 1.02
- relative viability (Doxorubicin + Linsitinib; first compound 0.03162 µM): 1.11
- relative viability (Doxorubicin + Linsitinib; first compound 0.1 µM): 0.92
- relative viability ([1]; first compound 0.001 µM): 0.579
- relative viability ([1]; first compound 0.003162 µM): 0.618
- relative viability ([1]; first compound 0.01 µM): 0.663
- relative viability ([1]; first compound 0.03162 µM): 0.671
- relative viability ([1]; first compound 0.1 µM): 0.575

Cell Line: 201T
- relative viability (BAY61-3606 + Tozasertib; first compound 0.02 µM): 1
- relative viability (BAY61-3606 + Tozasertib; first compound 0.06325 µM): 0.593
- relative viability (BAY61-3606 + Tozasertib; first compound 0.2 µM): 0.774
- relative viability (BAY61-3606 + Tozasertib; first compound 0.6325 µM): 0.565
- relative viability (BAY61-3606 + Tozasertib; first compound 2 µM): 0.378
- relative viability (Doxorubicin + Navitoclax; first compound 0.001 µM): 1.16
- relative viability (Doxorubicin + Navitoclax; first compound 0.003162 µM): 1.19
- relative viability (Doxorubicin + Navitoclax; first compound 0.01 µM): 1.2
- relative viability (Doxorubicin + Navitoclax; first compound 0.03162 µM): 1.24
- relative viability (Doxorubicin + Navitoclax; first compound 0.1 µM): 1.21
- relative viability (Doxorubicin + Linsitinib; first compound 0.001 µM): 1
- relative viability (Doxorubicin + Linsitinib; first compound 0.003162 µM): 0.979
- relative viability (Doxorubicin + Linsitinib; first compound 0.01 µM): 0.983
- relative viability (Doxorubicin + Linsitinib; first compound 0.03162 µM): 1.06
- relative viability (Doxorubicin + Linsitinib; first compound 0.1 µM): 1.01
- relative viability ([1]; first compound 0.001 µM): 0.351
- relative viability ([1]; first compound 0.003162 µM): 0.321
- relative viability ([1]; first compound 0.01 µM): 0.345
- relative viability ([1]; first compound 0.03162 µM): 0.349
- relative viability ([1]; first compound 0.1 µM): 0.354
